{"source": "patent US6500821B1", "about": "“4-amino-1-aryl-1,5-dihydropyrrol-2-ones and process for making” (Arzneimittelwerk Dresden GmbH, priority 1999, dated 2002)", "key": {"Vogel Conflict Test": {"system": "Vogel Conflict Test", "assay": "Vogel Conflict Test", "assay_type": "in vivo, rat", "excerpt": "In this model, continuous access to drinking water is withheld from rats for a certain time. After this period, free access is given to drinking water, but is coupled with a mild electrical stimulation. The conflict for the animals is between accepting the electrical stimulation or going without a drink.\nThe reactions to a conflict situation of this type are similar to the secondary phenomena of anxiety in man. The resulting avoidance reactions can be suppressed by anxiolytic substances. As a measure of the anxiolytic action, the number of tolerated current pulses of the animals treated with the test substance is assessed in comparison to the vehicle-treated control group."}, "s.c. pentetrazole": {"system": "s.c. pentetrazole", "assay": "Anticonvulsive action, s.c. pentetrazole (PTZ), mouse i.p.", "assay_type": "in vivo", "details": "ip, read-out: Action, % of the protected animals", "protocol": "(§1) Compounds according to the present invention were tested in vivo for their anticonvulsive action as shown in Table 1 in mice by i.p. administration, or in rats administered orally according to the internationally customary standard (Pharmac. Weekblad, Sc.Ed. 14 132 (1992) and Antiepileptic Drugs, Third Ed., Raven Press, New York 1989). [table]"}, "[1]": {"assay": "Octanol/water partition coefficient", "assay_type": "physicochemical", "details": "read-out: log P (octanol/water partition coefficient)"}, "elevated maze test": {"system": "elevated maze test", "assay": "Elevated maze test", "assay_type": "in vivo, mouse", "details": "for Activity in % (length of stay in the open arms, control = 100): mouse, intraperitoneal", "excerpt": "In this model, mice are placed in an elevated passage system with open and closed arms as described by Pellow, S., Chopin, P., File S. E., Briley, M.: Validation of open: closed arm entries in an elevated plus-maze as a measure of anxiety in rats. J. of Neuroscience Methods 14: 149-167, 1985; Hogg, S.: A review of the validity and variability of the elevated plus-maze as an animal model of anxiety. Pharmacology Biochemistry and Behavior: 21-30, 1996. Untreated animals repeatedly try the closed passages. The inhibition of anxiety is measured by the length of stay in the open arms as a percentage of the total length of stay."}, "maximal electroshock [2]": {"system": "maximal electroshock", "assay": "Anticonvulsive action, maximal electroshock (MES), mouse i.p.", "assay_type": "in vivo", "details": "ip, read-out: Action, % of the protected animals", "protocol": "as §1"}, "maximal electroshock [3]": {"system": "maximal electroshock", "assay": "Maximal electroshock, rat p.o.", "assay_type": "in vivo", "details": "po", "protocol": "as §1, with “1989).” for “1989). [table]”\n(§2) Analogous results were obtained for oral action."}, "[4]": {"system": "pentetrazol convulsion model", "assay": "Pentetrazol convulsion model, rat p.o.", "assay_type": "in vivo", "details": "po", "protocol": "as §1, with “1989).” for “1989). [table]”\nas §2"}, "neurotoxicity": {"system": "neurotoxicity", "assay": "Neurotoxicity, rat", "assay_type": "in vivo", "protocol": "as §1, with “1989).” for “1989). [table]”\nas §2"}}, "data": [{"smiles": "O=C1C=C(N2CCOCC2)CN1c1ccc(Cl)cc1", "note": "[Compound 4, 1-(4-chlorophenyl)-4-morpholin-4-yl-1,5-dihydropyrrol-2-one]", "values": [{"measurement": "therapeutic index", "setting": "Vogel Conflict Test; Vogel Conflict Test", "value": "> 50"}, {"measurement": "Changed number of impulses to the control in %", "setting": "Vogel Conflict Test; rat, 3 mg/kg p.o.", "value": 102, "unit": "%"}, {"measurement": "Changed number of impulses to the control in %", "setting": "Vogel Conflict Test; rat, 10 mg/kg p.o.", "value": 174, "unit": "%"}, {"measurement": "dose from which an anxiolytic action was detected / equally effective dose", "setting": "Vogel Conflict Test; rat, p.o.", "value": 10, "unit": "mg/kg"}, {"measurement": "responders at 30 mg/kg", "setting": "s.c. pentetrazole; dose 30 mg/kg", "value": 100, "unit": "%"}, {"measurement": "logP", "setting": "[1]", "value": 1.91}, {"measurement": "therapeutic index", "setting": "elevated maze test; elevated maze test", "value": "> 50"}, {"measurement": "proportionate length of stay in the open arms (in words)", "setting": "elevated maze test; intraperitoneal administration", "value": "significantly increased"}, {"measurement": "Activity in % (length of stay in the open arms, control = 100)", "setting": "elevated maze test; 1 mg/kg", "value": "128 (p < 0.05) %"}, {"measurement": "Activity in % (length of stay in the open arms, control = 100)", "setting": "elevated maze test; 3 mg/kg", "value": 110, "unit": "%"}, {"measurement": "Activity in % (length of stay in the open arms, control = 100)", "setting": "elevated maze test; 10 mg/kg", "value": "158 (p < 0.05) %"}, {"measurement": "Activity in % (length of stay in the open arms, control = 100)", "setting": "elevated maze test; 30 mg/kg", "value": 129, "unit": "%"}, {"measurement": "responders at 300 mg/kg", "setting": "maximal electroshock [2]", "value": 0, "unit": "%"}]}, {"smiles": "Cc1ccc(N2CC(N3CCCCC3)=CC2=O)cc1", "note": "[Compound 15, 1-(4-methylphenyl)-4-piperidin-1-yl-1,5-dihydropyrrol-2-one]", "values": [{"measurement": "responders at 100 mg/kg", "setting": "s.c. pentetrazole; dose 100 mg/kg", "value": 100, "unit": "%"}, {"measurement": "logP", "setting": "[1]", "value": 2.62}, {"measurement": "melting point", "value": "174 to 177", "unit": "°C"}, {"measurement": "responders at 100 mg/kg", "setting": "maximal electroshock [2]; dose 100 mg/kg", "value": 100, "unit": "%"}]}, {"smiles": "O=C1C=C(N2CCOCC2)CN1c1ccc(Cl)cc1", "note": "[1-(4-chlorophenyl)-4-morpholin-4-yl-1,5-dihydropyrrol-2-one]", "values": [{"measurement": "ED50", "setting": "maximal electroshock [3]", "value": 19, "unit": "mg/kg"}, {"measurement": "ED50", "setting": "[4]", "value": 11, "unit": "mg/kg"}, {"measurement": "NT50 neurotoxicity", "setting": "neurotoxicity", "value": "> 500", "unit": "mg/kg"}]}, {"smiles": "Cc1cccc(N2CC(N3CCCCC3)=CC2=O)c1", "note": "[Compound 12, 1-(3-methylphenyl)-4-piperidin-1-yl-1,5-dihydropyrrol-2-one]", "values": [{"measurement": "responders at 300 mg/kg", "setting": "s.c. pentetrazole; dose 300 mg/kg", "value": 0, "unit": "%"}, {"measurement": "logP", "setting": "[1]", "value": 2.66}, {"measurement": "melting point", "value": "117 to 123", "unit": "°C"}, {"measurement": "responders at 300 mg/kg", "setting": "maximal electroshock [2]", "value": 0, "unit": "%"}]}]}
